Source: US20250144069A1, “BILOBALIDE DERIVATIVE COMPOUNDS FOR TREATING NEUROLOGICAL DISEASES AND CANCERS” (The Chinese University of Hong Kong, priority 2023, published 2025)

Key:
[1] = system: BV-2 murine microglial cell line; assay: RSL3-induced ferroptosis model, cell viability (CCK-8); settings: BV-2, RSL3 500 nM 2 h, then 50 μM compound 22 h
Procedure: In this example, the anti-ferroptotic properties of the BB analogues described in preceding examples were evaluated by a RSL3-induced ferroptosis model. […] To evaluate the anti-ferroptosis activity of BB analogues, we developed a phenotypic screening based on RSL3-induced ferroptosis model on HT22 mouse hippocampal cell line, HMC3 microglial cell line and BV-2 murine microglial cell line which were co-treated or pre-treated with RSL3 and BB analogues for 2-24 h, and the cell viability was subsequently measured. […]
For phenotypic screening of bilobalide (BB) analogues, 5,000 cells per well (100 uL volume) of HT22, HMC3 or BV-2 cells were placed in 96-well plate and allowed to adhere for 22 h. […] Cell viability was measured using cell counting kit-8 (CCK-8) (MCE). […] Cell viability was measured after 22 h treatment by CCK-8. […] Cell viability was measured by CCK-8 using CLARIOstar monochromator multimode plate reader under 450 nm wavelength.
In this example, the cells were pre-treated with RSL3 (200 nM for HT22 and HMC3, 500 nM for BV-2) for two hours, followed by bilobalide analogues treatment (50 PM) for 22 hours. Cell viability was measured using cell counting kit-8 (CCK-8); n=5 technical replicates. […]

[2] = system: HT22 mouse hippocampal cell line; assay: as above
Procedure: In this example, the anti-ferroptotic properties of the BB analogues described in preceding examples were evaluated by a RSL3-induced ferroptosis model. […] To evaluate the anti-ferroptosis activity of BB analogues, we developed a phenotypic screening based on RSL3-induced ferroptosis model on HT22 mouse hippocampal cell line, HMC3 microglial cell line and BV-2 murine microglial cell line which were co-treated or pre-treated with RSL3 and BB analogues for 2-24 h, and the cell viability was subsequently measured.
HMC3 cell line was maintained in Minimum Essential Medium (MEM, Gibco) supplemented with 1× non-essential amino acid (Gibco), 1 mM sodium pyruvate (Gibco), 10% fetal bovine serum (FBS) (Gibco) and 1% penicillin/streptomycin (Gibco). BV-2 cell line was maintained in Roswell Park Memorial Institute (RPMI) 1640 medium (Gibco) supplemented with 10% FBS and 1% penicillin/streptomycin, and HT22 cell line was maintained in Dulbecco's Modified Eagle's Medium (DMEM) (Gibco) supplemented with 10% FBS and 1% penicillin/streptomycin. All cells were incubated at 37° C. in a humidified atmosphere under 5% CO2.
For phenotypic screening of bilobalide (BB) analogues, 5,000 cells per well (100 uL volume) of HT22, HMC3 or BV-2 cells were placed in 96-well plate and allowed to adhere for 22 h. After which, cells were pre-treated with 200 nM (on HT22, HMC3) or 500 nM (on BV-2) of RSL3 (Bidepharm) for 2 h respectively. Medium was then replaced by 50 μM BB analogues and followed by 22 h incubation subsequently. Cell viability was measured using cell counting kit-8 (CCK-8) (MCE). For dose-response of BB analogues, RSL3, HT22 and HMC3 cells (seeded on 96-well plates at 5,000 cells per well) were treated with multiple doses of RSL3 for 2 h. […] Cell viability was measured after 22 h treatment by CCK-8. […] Cell viability was measured by CCK-8 using CLARIOstar monochromator multimode plate reader under 450 nm wavelength.
In this example, the cells were pre-treated with RSL3 (200 nM for HT22 and HMC3, 500 nM for BV-2) for two hours, followed by bilobalide analogues treatment (50 PM) for 22 hours. Cell viability was measured using cell counting kit-8 (CCK-8); n=5 technical replicates. […] Such effect was further investigated by treating the cell lines with various doses of RSL3.

HMC3 cells [3] = assay: Lipid peroxidation level by flow cytometry using C11-BODIPY; assay type: cell-based; settings: HMC3, 50 nM RSL3 2 h, then 50, 25 and 12.5 μM compound 3 h
Procedure: (§1) For flow cytometry, HMC3 cells (seeded 50,000 cells per well on 24-well plate one day prior to the experiment) were pretreated with 50 nM RSL3 for 2 h. […] After which medium was replaced with BODIPY™ 581/591C11 (10 μM, Invitrogen) or CellROX™ Green (5 μM, Invitrogen) for 30 min staining. Cells were then washed 3 times with PBS and collected. Fluorescence was measured by BD FACSympgony A5.2 SORP Flow Cell Analyzer (BD Biosciences).
Disequilibrium ROS level acts as a direct initiator of lipid peroxidation, which is one of the major hallmarks of ferroptosis. In this example, HMC3 cells according to the conditions in Table 4 were subjected to measurement of lipid peroxidation level using flow cytometry and the lipid peroxidation sensor C11-BODIPY.
For flow cytometry, HMC3 cells (seeded 50,000 cells per well on 24-well plate one day prior to the experiment) were pretreated with 50 nM RSL3 for 2 h. After RSL3 treatment, medium was replaced by DMSO (0.1%) only, SXQ087-1 (10, 5 and 2.5 μM), following by 3 h treatment. After which medium was replaced with BODIPY™ 581/591C11 (10 μM, Invitrogen) for 30 min staining. Cells were then washed 3 times with PBS and collected. Fluorescence was measured by BD FACSympgony A5.2 SORP Flow Cell Analyzer (BD Biosciences).
Lipid peroxidation is one of the major hallmarks of ferroptosis. In this example, HMC3 cells according to the conditions in Table 5 were subjected to measurement of lipid peroxidation level using flow cytometry and the lipid peroxidation sensor C11-BODIPY.

[4] = Single-dose CCK-8 cell viability screening (adherent cells); assay type: cell-based, human; settings: Homo sapiens, A549, 48 h, average of A549 and Jurkat % viability, 50 uM, 48 h
A549 cells = assay: as above; assay type: cell-based, human; settings: Homo sapiens, A549, 48 h, A549 cells, 50 uM, 48 h, CCK-8; read-out: % Viability (50 uM, 48 h) A549
[5] = system: HMC3 microglial cell line; assay: RSL3-induced ferroptosis model, cell viability (CCK-8); assay type: cell-based
HMC3 cells [6] = assay type: cell-based; settings: then 50 μM compound 22 h
HMC3 cells [7] = assay: Intracellular ROS level by CellROX (fluorescent imaging and flow cytometry); assay type: cell-based; settings: HMC3, 50 nM RSL3 2 h, then 50 μM compound 3 h
Procedure: as §1
For fluorescent imaging, 10,000 cells per well of HMC3 were laid on cover slip and incubated overnight. After the same compound treatment as described above in this section, cells were subsequently incubated with CellROX™ Green and Hoechst 34580 (MCE) for 30 min. After incubation, cells were washed 3 times gently with PBS. Cover slips were then attached to glass slides by Anti-Fade Fluorescence Mounting Medium (Abcam) and imaged via ECLIPSE Ti fluorescence microscope (Nikon). Fluorescent intensity was quantified using imageJ software.
To further evaluate the anti-ferroptotic properties of bilobalide analogues, we tested its effect on the total level of intracellular reactive oxygen species (ROS), we performed fluorescent staining on the HMC3 cell line using CellROX, which is a probe which can emit green fluorescence after reacting with ROS. […]

HMC3 cells [8] = assay: Cytotoxicity, cell viability of HMC3 cells; assay type: cell-based; settings: 24 h treatment
Text: Now referring to FIG. 11A, a chart showing the cell viability (%) of HMC3 cells treated with SXQ087-1, XBB-037 or bilobalide.

CC(C)(C)[C@]1(O)C[C@@H]2OC(=O)C[C@@]23C(=O)O[C@@H]2N(c4ccc(N)cc4)C(=O)[C@H](OC(=O)c4ccccc4)[C@]213 [XBB-037, 4-(3aS,5aS,8R,9R,10aS)-8-(benzoyloxy)-9-(tert-butyl)-9-hydroxy-2,4,7-trioxohexahydro-4H,9H-furo[3″,2″:2′,3′]cyclopenta[1′,2′:3,4]furo[2,3-b]pyrrol-6(5aH)-yl)benzenaminium chloride]
inhibition of RSL3-induced ferroptosis (phenotypic screening, cell viability) [1]: effectively inhibit ferroptosis
inhibition of RSL3-induced ferroptosis (phenotypic screening, cell viability) ([2]; HT22, RSL3 200 nM 2 h, then 50 μM compound 22 h): effectively inhibit ferroptosis
shift of RSL3 dose-dependent viability curve ([2]; HT22, multiple doses of RSL3, 50 μM compound): diminished RSL3 lethality
lipid peroxidation level (C11-BODIPY) (HMC3 cells [3]): significant down-regulation of RSL3-induced lipid peroxidation accumulation in a dose-dependent manner
viability at 50 µM [4]: 90.5%
viability at 50 µM (A549 cells): 95%
inhibition of RSL3-induced ferroptosis (phenotypic screening, cell viability) ([5]; HMC3, RSL3 200 nM 2 h, then 50 μM compound 22 h): effectively inhibit ferroptosis
shift of RSL3 dose-dependent viability curve ([5]; HMC3, multiple doses of RSL3, 50 μM compound): diminished RSL3 lethality
protection against FIN56-induced cell death (cell viability) (HMC3 cells [6]; HMC3, FIN56 2 h): effectively suppressed FIN56-induced cell death
protection against ML162 lethality (cell viability) (HMC3 cells [6]; HMC3, ML162 2 h): alleviated the lethality of ML162
protection against ML210 lethality (cell viability) (HMC3 cells [6]; HMC3, ML210 2 h): alleviated the lethality of ML210
protection against erastin-induced lethality (cell viability) (HMC3 cells [6]; HMC3, erastin 2 h): suppressed erastin-induced lethality
intracellular ROS level (CellROX fluorescent staining) (HMC3 cells [7]): significantly reduced intracellular ROS level
cytotoxicity (cell viability) (HMC3 cells [8]): no significant cytotoxicity
